Data taken from US12514908B2 (MAPI PHARMA LTD., priority 2021, dated 2026).
Several values for one entry are separate records, joined by “and”; a condition that tells them apart may be missing. Identical values can stand only once.

Assays:
[1] = Example 4 semaglutide plasma concentrations in db/db mice; conditions: for Plasma concentrations, individual animals: SC, Daily, listed as Semaglutide API
[2] = Example 6 semaglutide plasma levels in db/db mice; format: in vivo; conditions: 0.02 mg/kg/day SC daily
Protocol: Naïve control, n=5 • 2. Vehicle (db/db mice) SC administered daily (dose-(vehicle) 1 ml/kg/day, for 42 days), n=10 • 3.
Body weight and food consumption were monitored daily. Ad-lib fed blood glucose levels were measured every third day. Fasted blood glucose levels were measured on Day-14, Day-28 and Day-42. Glycated hemoglobin (hbA1c) levels were measured on Day-0, Day-28, and Day-42.

db/db mice = test: Example 4 death of an animal in db/db mice (Table 10B); format: in vivo; conditions: 0.4 mg/kg, SC, Daily, animal No. 3, after Day 7 (3 h), before Day 14
[3] = Example 5 plasma concentrations and pharmacokinetic parameters in male Gottingen minipigs; format: in vivo
Protocol: […] At each time point, ˜2.0 ml of blood was withdrawn and transferred into a prelabeled K2EDTA coated vacutainers and mixed gently by inverting the tube to facilitate mixing of anticoagulant with the blood. Blood samples were kept on gel packs until centrifugation. The collected blood samples were centrifuged at 4,000 rpm for 10 min at 4° C. Plasma was separated after centrifugation. All plasma samples were transferred into pre-labeled (Animal ID No., Time point, Study No., and Group) tubes and stored at −70±10° C. until analysis. Blood glucose levels were determined for all blood collection time points.
Bioanalysis was performed using fit-for-purpose liquid chromatography mass spectrometry (LC-MS/MS) method for the quantification of semaglutide in plasma samples. Linearity range was 1 to 204 ng/ml. Semaglutide were extracted from mini pigs plasma samples using solid phase extraction technique and quantified using LC-MS/MS with Electro Spray Ionization (ESI) and multiple reaction monitoring (MRM) in positive ionization mode.

in vivo = conditions: male, db/db, mouse, plasma, sc

For `CC[C@H](C)[C@H](NC(=O)[C@H](Cc1ccccc1)NC(=O)[C@H](CCC(=O)O)NC(=O)[C@H](CCCCNC(=O)COCCOCCNC(=O)COCCOCCNC(=O)CC[C@H](NC(=O)CCCCCCCCCCCCCCCCC(=O)O)C(=O)O)NC(=O)[C@H](C)NC(=O)[C@H](C)NC(=O)[C@H](CCC(N)=O)NC(=O)CNC(=O)[C@H](CCC(=O)O)NC(=O)[C@H](CC(C)C)NC(=O)[C@H](Cc1ccc(O)cc1)NC(=O)[C@H](CO)NC(=O)[C@H](CO)NC(=O)[C@@H](NC(=O)[C@H](CC(=O)O)NC(=O)[C@H](CO)NC(=O)[C@@H](NC(=O)[C@H](Cc1ccccc1)NC(=O)[C@@H](NC(=O)CNC(=O)[C@H](CCC(=O)O)NC(=O)C(C)(C)NC(=O)[C@@H](N)Cc1cnc[nH]1)[C@@H](C)O)[C@@H](C)O)C(C)C)C(=O)N[C@@H](C)C(=O)N[C@@H](Cc1c[nH]c2ccccc12)C(=O)N[C@@H](CC(C)C)C(=O)N[C@H](C(=O)N[C@@H](CCCNC(=N)N)C(=O)NCC(=O)N[C@@H](CCCNC(=N)N)C(=O)NCC(=O)O)C(C)C` [semaglutide, [Aib8, Lys26 (γGlu-2xOEG-C18 acid), Arg34]-hGLP-1-(7-37)-OH], the “Plasma concentrations, individual animals” value ([1]; 0.06 mg/kg, Day 1 (3 h), 0.06 mg/kg) was 230 ng/mL, the “Plasma concentrations, individual animals” value ([1]; 0.06 mg/kg, Day 7 (0 h), 0.06 mg/kg) was 206 ng/mL and the “Plasma concentrations, individual animals” value ([1]; 0.06 mg/kg, Day 7 (3 h), 0.06 mg/kg) was 855 ng/mL. The “Plasma concentrations, individual animals” value ([1]; 0.06 mg/kg, Day 21 (0 h), 0.06 mg/kg) was 171 ng/mL and 269 ng/mL, the “Plasma concentrations, individual animals” value ([1]; 0.06 mg/kg, Day 21 (3 h), 0.06 mg/kg) was 867 ng/mL and the “Plasma concentrations, individual animals” value ([1]; 0.06 mg/kg, Day 28 (0 h), 0.06 mg/kg) was 320 ng/mL and 257 ng/mL. The “Plasma concentrations, individual animals” value ([1]; 0.06 mg/kg, Day 28 (3 h), 0.06 mg/kg) was 474 ng/mL and 406 ng/mL, the “plasma levels at 3 hrs post injection” value ([1]; 0.06 mg/kg/day SC daily) was “increase in plasma levels” and the “Plasma concentrations, individual animals” value ([1]; 0.4 mg/kg, Day 1 (3 h), 0.4 mg/kg) was 1310 ng/mL. The “Plasma concentrations, individual animals” value ([1]; 0.4 mg/kg, Day 14 (3 h), 0.4 mg/kg) was 6500 ng/mL, the “Plasma concentrations, individual animals” value ([1]; 0.4 mg/kg, Day 21 (0 h), 0.4 mg/kg) was 2550 ng/mL and the “Plasma concentrations, individual animals” value ([1]; 0.4 mg/kg, Day 28 (0 h), 0.4 mg/kg) was 2880 ng/mL and 1460 ng/mL. The “Plasma concentrations, individual animals” value ([1]; 0.4 mg/kg, Day 28 (3 h), 0.4 mg/kg) was 6690 ng/mL, the “plasma levels 3 hrs post injection” value ([1]; 0.4 mg/kg/day SC daily) was “increase in plasma levels” and the “dose dependence of the increase in plasma levels” value ([1]; between 0.06 and 0.4 mg/kg daily doses) was “dose proportional”. The “course of plasma levels” value [2] was “fluctuations with increase in plasma levels 3 h post injections”, the “Mortality (animal died)” value (db/db mice) was “Animal died” and the “Mean plasma concentrations of semaglutide” value ([3]; Group 2, repeated SC 0.008 mg/kg every 3 days until Day 28, n=3, 0 h) was 0 ng/mL. It also gave a level at 6 h ([3]; minipig, plasma, Group 2, repeated SC 0.008 mg/kg every 3 days until Day 28, n=3, 6 h) of 9.64 ng/mL, a level at 12 h ([3]; minipig, plasma, Group 2, repeated SC 0.008 mg/kg every 3 days until Day 28, n=3, 12 h) of 10.2 ng/mL and a level at 24 h ([3]; minipig, plasma, Group 2, repeated SC 0.008 mg/kg every 3 days until Day 28, n=3, 24 h) of 11 ng/mL. It also gave a level at 48 h ([3]; minipig, plasma, Group 2, repeated SC 0.008 mg/kg every 3 days until Day 28, n=3, 48 h) of 9.67 ng/mL, a level at 72 h ([3]; minipig, plasma, Group 2, repeated SC 0.008 mg/kg every 3 days until Day 28, n=3, 72 h) of 9.43 ng/mL and a level at 84 h ([3]; minipig, plasma, Group 2, repeated SC 0.008 mg/kg every 3 days until Day 28, n=3, 84 h) of 17.7 ng/mL. The level at 144 h ([3]; minipig, plasma, Group 2, repeated SC 0.008 mg/kg every 3 days until Day 28, n=3, 144 h) was 13.1 ng/mL, the level at 156 h ([3]; minipig, plasma, Group 2, repeated SC 0.008 mg/kg every 3 days until Day 28, n=3, 156 h) was 35 ng/mL and the level at 216 h ([3]; minipig, plasma, Group 2, repeated SC 0.008 mg/kg every 3 days until Day 28, n=3, 216 h) was 27.3 ng/mL. The level at 228 h ([3]; minipig, plasma, Group 2, repeated SC 0.008 mg/kg every 3 days until Day 28, n=3, 228 h) was 31.3 ng/mL, the level at 288 h ([3]; minipig, plasma, Group 2, repeated SC 0.008 mg/kg every 3 days until Day 28, n=3, 288 h) was 23 ng/mL and the level at 300 h ([3]; minipig, plasma, Group 2, repeated SC 0.008 mg/kg every 3 days until Day 28, n=3, 300 h) was 21.3 ng/mL. The level at 360 h ([3]; minipig, plasma, Group 2, repeated SC 0.008 mg/kg every 3 days until Day 28, n=3, 360 h) was 34 ng/mL, the level at 504 h ([3]; minipig, plasma, Group 2, repeated SC 0.008 mg/kg every 3 days until Day 28, n=3, 504 h (For G2)) was 27.3 ng/mL and the level at 648 h ([3]; minipig, plasma, Group 2, repeated SC 0.008 mg/kg every 3 days until Day 28, n=3, 648 h (For G2)) was 23.4 ng/mL. For the same compound, the level at 720 h ([3]; minipig, plasma, Group 2, repeated SC 0.008 mg/kg every 3 days until Day 28, n=3, 720 h (Day 30)) was 27 ng/mL, the level at 24 h (in vivo; 0.06 mg/kg/day) was 100 to 500 ng/mL and the level at 24 h (in vivo; 0.4 mg/kg/day) was 500 to 4500 ng/mL.
